Assay results: patent US11246320B2, “Casein glycomacropeptide (CGMP) oligomers” (Chr. Hansen A/S, priority 2017, dated 2022)

How the values were obtained:
[1] = cited from earlier work; for pKsp: comparison values
[2] = Stability of curcumin, free versus encapsulated (absorbance at 420 nm); assay type: physicochemical
Protocol: To prepare a stock solution of curcumin, 100 mg of commercial turmeric powder was suspended in 10 mL of ethanol and vortex and kept for inversion for 2 hours. The tube was closed and covered with aluminum foil to prevent the degradation of curcumin by oxidation and UV light. Next, the suspension was centrifuged at 13200 rpm for 30 minutes to separate the insoluble particles form the ethanol solubilized curcumin. The supernatant was carefully collected and this was used as a stock solution of curcumin in ethanol. The stock solution was adjusted with ethanol so that a 100 x dilution of this stock solution in MQ-Water gave an absorbance of 2±0.1 at 420 nm, when measured immediately after the dilution. If stored at ambient conditions, the absorbance decreases rapidly due to degradation of curcumin by oxidation and light.
To load curcumin 10 μL of curcumin stock solution was added to 990 μL of buffer (±lactase) which was used for encapsulation. The loaded curcumin was not removed by repeated washing and this indicated good encapsulation and stabilization. The microcapsule suspension with encapsulated curcumin appeared yellow.

O=P([O-])([O-])[O-].O=P([O-])([O-])[O-].[Ca+2].[Ca+2].[Ca+2] [CaP, Ca3(PO4)2]
Ksp ([1]; 25° C.): 2.07×10^−33

O=C([O-])[O-].[Ca+2] [calcium carbonate]
pKsp [1]: 8.47

[Ca+2].[OH-].[OH-] [calcium hydroxide]
pKsp [1]: 5.3

COc1cc(/C=C/C(=O)CC(=O)/C=C/c2ccc(O)c(OC)c2)ccc1O [curcumin]
increase of half-life ([2]; encapsulated in CaP particles stabilized by oligo-CGMP or in liposomes, versus storage at ambient conditions): 5-10 times
stability as indicated by half and quarter-life ([2]; encapsulated in oligo-CGMP micelles): significantly increased
